Common to all, as to type: in vivo
The test system of assay [1] is velvetleaf (Abutilon theophrasti, ABUTH). Description: Post-emergent evaluation. The following applies: data gathered 15 days after treatment, probit analysis. As for the experimental part: (§1) Seeds of the desired test plant species were planted in Grace-Sierra MetroMix® 306 planting mixture, which typically has a pH of 6.0 to 6.8 and an organic matter content of about 30 percent, in plastic pots with a surface area of 64 square centimeters. When required to ensure good germination and healthy plants, a fungicide treatment and/or other chemical or physical treatment was applied. The plants were grown for 7-21 days in a greenhouse with an approximate 15 hr photoperiod which was maintained at about 23-29° C. during the day and 22-28° C. during the night. Nutrients and water were added on a regular basis and supplemental lighting was provided with overhead metal halide 1000-Watt lamps as necessary. The plants were employed for testing when they reached the first or second true leaf stage.
(§2) A weighed amount, determined by the highest rate to be tested, of each test compound was placed in a 20 mL glass vial and was dissolved in 4 mL of a 97:3 v/v (volume/volume) mixture of acetone and dimethyl sulfoxide (DMSO) to obtain concentrated stock solutions. […] The concentrated stock solutions obtained were diluted with an aqueous mixture containing acetone, water, isopropyl alcohol, DMSO, Atplus 411F crop oil concentrate, and Triton X-155 surfactant in a 48.5:39:10:1.5:1.0:0.02 v/v ratio to obtain spray solutions of known concentration. The solutions containing the highest concentration to be tested were prepared by diluting 2 mL aliquots of the stock solution with 13 mL of the mixture and lower concentrations were prepared by serial dilution of the stock solution. Approximately 1.5 mL aliquots of each solution of known concentration were sprayed evenly onto each of the test plant pots using a DeVilbiss atomizer driven by compressed air pressure of 2 to 4 psi ([…]) to obtain thorough coverage of each plant. Control plants were sprayed in the same manner with the aqueous mixture. In this test an application rate of 1 ppm results in the application of approximately 1 g/Ha.
(§3) The treated plants and control plants were placed in a greenhouse as described above and watered by sub-irrigation to prevent wash-off of the test compounds. […] Species abbreviations as described for Table I with the following additions: soybean (Glycine max, GLXMA), rape (Brassica napus, BRSNN), chickweed (Stellaria media, STEME), cocklebur (Xanthium strumarium XANST), lambsquarters (Chenopodium album, CHEAL), violet (Viola tricolor, VIOTR), bindweed (Polygonum convolvulus, POLCO), spurge (Euphorbia heterophylla, EPHHL), Canada thistle (Cirsium arvense, CIRAR), corn (Zea mays, ZEAMX), rice (Oryza sativa, ORYSA), wheat (Triticum aestivum, TRZAS), crabgrass (Digitaria sanguinalis, DIGSA), shattercane (Sorghum vulgare, SORVU) and yellow nutsedge (Cyperus esculentus, CYPES).
(§4) By applying the well-accepted probit analysis as described by J. Berkson in Journal of the American Statistical […], 48, 565 (1953) and by D. Finney in “Probit Analysis” Cambridge University Press (1952), similar data can be used to calculate GR80 values, which are defined as growth reduction factors that correspond to the effective dose of herbicide required to kill or control 80 percent of a target plant. Species abbreviations are as previously defined.

Assay [2] concerns giant foxtail (Setaria faberi, SETFA). As to the kind of experiment: Post-emergent evaluation. As to conditions: for GR80: data gathered 15 days after treatment, probit analysis; for % growth reduction at the lowest rate tested: 15 days after treatment. As for the experimental part: as §1, §2, §3, §4
The test system of assay [3] is shattercane (Sorghum vulgare, SORVU). As to the kind of experiment: Post-emergent evaluation. The following applies: for GR80: data gathered 15 days after treatment, probit analysis. As for the experimental part: as §1, §2, §3, §4
In assay [4] the test system is morningglory (Ipomoea hederacea, IPOHE). As to the kind of experiment: Post-emergent evaluation. As to conditions: data gathered 15 days after treatment, probit analysis. As for the experimental part: as §1, §2, §3, §4
In assay [5] the test system is barnyardgrass (Echinochloa crusgalli, ECHCG). Description: Post-emergent evaluation. The following applies: for GR80: data gathered 15 days after treatment, probit analysis; for % growth reduction at the lowest rate tested: 15 days after treatment. As for the experimental part: as §1, §2, §3, §4
The test system of assay [6] is chickweed (Stellaria media, STEME). Description: Post-emergent evaluation. The following applies: data gathered 15 days after treatment, probit analysis. As for the experimental part: as §1, §2, §3, §4
Assay [7] concerns violet (Viola tricolor, VIOTR). Description: Post-emergent evaluation. The following applies: data gathered 15 days after treatment, probit analysis. As for the experimental part: as §1, §2, §3, §4
Assay [8] relates to crabgrass (Digitaria sanguinalis, DIGSA). As to the kind of experiment: Post-emergent evaluation. The following applies: data gathered 15 days after treatment, probit analysis. The procedure:
as §1, §2
(§5) The treated plants and control plants were placed in a greenhouse as described above and watered by sub-irrigation to prevent wash-off of the test compounds. After 2 weeks the condition of the test plants as compared with that of the untreated plants was determined visually and scored on a scale of 0 to 100 percent where 0 corresponds to no injury and 100 corresponds to complete kill. Species abbreviations as described for Table I with the following additions: soybean (Glycine max, GLXMA), rape (Brassica napus, BRSNN), chickweed (Stellaria media, STEME), cocklebur (Xanthium strumarium XANST), lambsquarters (Chenopodium album, CHEAL), violet (Viola tricolor, VIOTR), bindweed (Polygonum convolvulus, POLCO), spurge (Euphorbia heterophylla, EPHHL), Canada thistle (Cirsium arvense, CIRAR), corn (Zea mays, ZEAMX), rice (Oryza sativa, ORYSA), wheat (Triticum aestivum, TRZAS), crabgrass (Digitaria sanguinalis, DIGSA), shattercane (Sorghum vulgare, SORVU) and yellow nutsedge (Cyperus esculentus, CYPES).
as §4

The subject of assay [9] is yellow nutsedge (Cyperus esculentus, CYPES). As to the kind of experiment: Post-emergent evaluation. As to conditions: data gathered 15 days after treatment, probit analysis. The procedure:
as §1, §2, §5, §4

Assay [10] concerns test plant species. As to the kind of experiment: Biological assays of the enantiomers (herbicidal activity). The following applies: resolved enantiomers. The procedure: as §1, with “The plants were employed for testing when they reached the first or second true leaf stage.” left out
A weighed amount, determined by the highest rate to be tested, of each test compound was placed in a 20 mL glass vial and was dissolved in 4 mL of a 97:3 v/v (volume/volume) mixture of acetone and dimethyl sulfoxide (DMSO) to obtain concentrated stock solutions. […]
The treated plants and control plants were placed in a greenhouse as described above and watered by sub-irrigation to prevent wash-off of the test compounds. After 2 weeks the condition of the test plants as compared with that of the untreated plants was determined visually and scored on a scale of 0 to 100 percent where 0 corresponds to no injury and 100 corresponds to complete kill. […]

For assay [11], the system named is lambsquarters (Chenopodium album, CHEAL). Description: Synergistic herbicidal activity, foliar track sprayer. As to conditions: nonanoic acid 1120 g ae/ha alone, 14 days, 1% crop oil concentrate. The procedure: (§6) Methylidene mevalonate alone and in combination with nonanoic acid was applied to the foliage of rapidly growing plant material utilizing a track sprayer calibrated to deliver an application volume of 187 L/ha. These treatments were applied to both broadleaf and grass weed species. All treatments contained 1% crop oil concentrate. Assessment of herbicidal activity was performed visually relative to untreated controls after 14 days incubation in the greenhouse. Species abbreviations are as previously defined.

The subject of assay [12] is crabgrass (Digitaria sanguinalis, DIGSA). The assay is described as above. As to conditions: nonanoic acid 1120 g ae/ha alone, 14 days, 1% crop oil concentrate. As for the experimental part: as §6
Assay [13] relates to morningglory (Ipomoea hederacea, IPOHE). Described as above. The following applies: nonanoic acid 1120 g ae/ha alone, 14 days, 1% crop oil concentrate. As for the experimental part:
as §6

The test system of assay [14] is wild oats (Avena fatua, AVEFA). Described as above. The following applies: nonanoic acid 1120 g ae/ha alone, 14 days, 1% crop oil concentrate. The procedure:
as §6

As to `C=C(CO)C(C)(O)CC(=O)[O-].[K+]` (racemic), the GR80 in [1] is reported as 720 g ae/ha; in [2], under 375 g ae/ha; in assay [3], 400 g ae/ha; in assay [4], 375 g ae/ha; in [5], under 375 g ae/ha; in assay [6], 2089 g ae/ha. In addition, the GR80 amounted to 1768 g ae/ha in assay [7], 1003 g ae/ha in [8] and 603 g ae/ha in [9]. Besides, the “% growth reduction at the lowest rate tested” value was found to be 95% in assay [2] and 98% in assay [5].
Regarding `C=C(CO)C(C)(O)CC(=O)[O-].[Na+]` (racemic), the GR80 in assay [1] is on record as 965 g ae/ha; in [2] it was under 375 g ae/ha; in assay [3] it was under 375 g ae/ha; in assay [4] it was 416 g ae/ha; in [5], under 375 g ae/ha; in assay [6], 1358 g ae/ha. For the same compound, the GR80 in [7] amounted to 2290 g ae/ha; in [8], 774 g ae/ha; in assay [9], 375 g ae/ha. Further, the “% growth reduction at the lowest rate tested” value worked out at 97% in assay [2]; 93% in assay [3] (lowest rate tested, 15 days after treatment); 98% in assay [5].
In the case of `C=C(CO)C(C)(O)CC(=O)[O-].[K+]` (single isomer, unassigned; (+)) [(+)-4-Methylidene Mevalonate, Potassium Salt], the GR80 in assay [1] (Potassium Salt) came to 1135 g ae/ha; in assay [2] (Potassium Salt) it was 183 g ae/ha; in [3] (Potassium Salt), 490 g ae/ha; in [4] (Potassium Salt) it was 341 g ae/ha; in assay [5] (Potassium Salt), 351 g ae/ha; in [6] (Potassium Salt), 1349 g ae/ha. For the same compound, the GR80 came to 1865 g ae/ha in [7] (Potassium Salt), 916 g ae/ha in assay [8] (Potassium Salt) and 429 g ae/ha in [9] (Potassium Salt). For the same compound, the herbicidal activity result in assay [10] is “herbicidal activity was manifested”.
For the compound `C=C(CO)C(C)(O)CC(=O)[O-].[K+]` (single isomer, unassigned; (-)) [(−)-4-Methylidene Mevalonate, Potassium Salt], the GR80 in assay [1] (Potassium Salt), in assay [2] (Potassium Salt), in assay [3] (Potassium Salt), in assay [4] (Potassium Salt), in [5] (Potassium Salt) and in [6] (Potassium Salt) was over 1500 g ae/ha in each case. Besides, the GR80 in assay [7] (Potassium Salt), in [8] (Potassium Salt) and in [9] (Potassium Salt) was over 1500 g ae/ha each time.
For `C=C1COC(=O)CC1(C)O` (centres unmarked) [Methylidene Mevalonolactone], the GR80 is 2266 g ae/ha in assay [1]; 430 g ae/ha in assay [2]; 615 g ae/ha in assay [3]; 725 g ae/ha in [4]; under 375 g ae/ha in assay [5]; 3032 g ae/ha in assay [6]. Moreover, the values for the GR80 in [7], in [8] and in assay [9] were 2473 g ae/ha, 834 g ae/ha and 834 g ae/ha, respectively. In addition, the “% growth reduction at the lowest rate tested” value in assay [5] turned out to be 100%.
Regarding `CCCCCCCCC(=O)O` [Nonanoic Acid, nonanoic acid, reference compound], the “Actual Injury % growth reduction” value in assay [11], in [12], in [13] and in assay [14] was 0% throughout.

(Values after US7393812B2, “Methylidene mevalonates and their use as herbicides” (Dow AgroSciences LLC, priority 2004, dated 2008).)
